{
  "source": "patent US10821195B2",
  "about": "“Compositions for therapeutics, targeted PET imaging and methods of their use” (Memorial Sloan Kettering Cancer Center, priority 2015, dated 2020)",
  "key": {"FIG. 2": {"assay": "FIG. 2", "from_the_text": "Table printed on a drawing sheet, FIG. 2\n(§1) In contrast, ^89Zr-HOPO is shown to be approximately impervious to the EDTA. […] This represents a significant improvement in the stability of the Zr-ligand complex at lower pH. […] Initially activity is seen in the bladder, gall bladder, and intestines.\nFirst reader's note: Cell hatching encodes the percent-intact class given in the legend; the values show stability of the radiometal-chelator complexes against EDTA transchelation."}, "[1]": {"assay": "Stability of ^89Zr complexes in human serum at 37° C. for 7 d (ITLC, SEC)", "details": "bare ligand complexes, one week", "protocol": "Seven day old samples of the Zr-ligand complexes were run down a size exclusion column to differentiate protein and ligand.\nSerum stability and immunoreactivity of ^89Zr-complexes were evaluated. To determine the stability in serum, ^89Zr-complexes were incubated in human serum at 37° C. for 7 d. The percentage of intact species was monitored by ITLC (Table 9).\n^89Zr-ligand and ^89Zr-ligand-antibody complexes were prepared according to the radiolabeling protocol as described above. For each ^89Zr complex, samples were made consisting of 900 μL human serum and 100 μL of the ^89Zr species and were placed in a heat block at 37° C. with agitation. Samples were monitored using radio-TLC before being added to the serum and then after 1 week of incubation. The stability of the complexes was measured as the percentage of ^89Zr that was retained at the origin of the ITLC strip and therefore still intact."}, "[2]": {"assay": "EDTA transchelation challenge of ^89Zr complexes", "assay_type": "physicochemical", "details": "50-fold excess of EDTA, 37° C., various pHs, 7 days", "from_the_text": "as §1"}, "[3]": {"assay": "Biodistribution and clearance of ^89Zr-HOPO and ^89Zr-DFO in healthy mice", "assay_type": "in vivo, healthy athymic nude mice", "parameters": "biodistribution Spleen / biodistribution Stomach / biodistribution Large Intestine / biodistribution Small Intestine / biodistribution Kidney / biodistribution Bladder / biodistribution Muscle / biodistribution Bone / biodistribution Tail / biodistribution Blood / biodistribution Heart / biodistribution Lung / biodistribution Gall Bladder / biodistribution Liver: unit not given here", "from_the_text": "Significant uptake of ^89Zr-HOPO occurs in the gall bladder and intestines as well as the kidney. […] As ^89Zr-DFO is cleared exclusively through the kidneys and not through the hepatobiliary system, it is excreted from the body faster than ^89Zr-HOPO, as evidenced by the blood clearance curve (FIG. 10). While not wishing to be bound to theory, upon conjugation to an antibody, the pharmacokinetics of a ^89Zr-HOPO complex comprising ^89Zr-HOPO and an antibody can be superseded by those of the biomacromolecule, meaning that a difference in clearance pathways between ^89Zr-HOPO and ^89Zr-DFO should not be a concern. However, over the short circulation time of the Zr-ligand complexes, neither DFO nor HOPO show any signs of instability or bone accumulation."}},
  "note": "Several values for one entry are separate records, joined by “and”; a condition that tells them apart may be missing. Equal values may be shown once.",
  "data": [
    {"smiles": "CC(=O)N1CCCCCNC(=O)CCC(=O)N2CCCCCNC(=O)CCC(=O)N(CCCCCN)[O][89Zr+]([O]1)[O]2", "note": "[^89Zr-DFO]", "values": [
      {"measurement": "% INTACT STARTING SPECIES BY INCUBATION TIME | 1 h", "setting": "FIG. 2", "result": "99.9±0.2% and 97.1±0.8% and 86.6±1.5%"},
      {"measurement": "% INTACT STARTING SPECIES BY INCUBATION TIME | 3 h", "setting": "FIG. 2", "result": "99.3±0.6% and 98.8±0.9% and 98.7±0.8% and 96.2±0.6% and 90.7±1.7% and 55.7±3.8%"},
      {"measurement": "stability in human serum (ITLC and SEC)", "setting": "[1]", "result": "stable in serum over 7 days"},
      {"measurement": "stability to transchelation by EDTA", "setting": "[2]", "result": "susceptible to transchelation"},
      {"measurement": "biodistribution Bladder", "setting": "[3]; 10 min", "result": "2.50 ± 0.48"},
      {"measurement": "biodistribution Blood", "setting": "[3]; 10 min", "result": "5.11 ± 0.90"},
      {"measurement": "biodistribution Bone", "setting": "[3]; 10 min", "result": "0.43 ± 0.10"},
      {"measurement": "biodistribution Gall Bladder", "setting": "[3]; 10 min", "result": "1.57 ± 0.25"},
      {"measurement": "biodistribution Heart", "setting": "[3]; 10 min", "result": "2.17 ± 0.62"},
      {"measurement": "biodistribution Kidney", "setting": "[3]; 10 min", "result": "14.44 ± 5.88"},
      {"measurement": "biodistribution Large Intestine", "setting": "[3]; 10 min", "result": "0.43 ± 0.13"},
      {"measurement": "biodistribution Liver", "setting": "[3]; 10 min", "result": "0.88 ± 0.49"},
      {"measurement": "biodistribution Lung", "setting": "[3]; 10 min", "result": "2.16 ± 1.08"},
      {"measurement": "biodistribution Muscle", "setting": "[3]; 10 min", "result": "0.73 ± 0.56"},
      {"measurement": "biodistribution Small Intestine", "setting": "[3]; 10 min", "result": "0.94 ± 0.16"},
      {"measurement": "biodistribution Spleen", "setting": "[3]; 10 min", "result": "0.37 ± 0.22"},
      {"measurement": "biodistribution Stomach", "setting": "[3]; 10 min", "result": "0.62 ± 0.28"},
      {"measurement": "biodistribution Tail", "setting": "[3]; 10 min", "result": "5.13 ± 2.92"},
      {"measurement": "biodistribution Bladder", "setting": "[3]; 1 h", "result": "2.47 ± 1.30"},
      {"measurement": "biodistribution Blood", "setting": "[3]; 1 h", "result": "0.10 ± 0.04"},
      {"measurement": "biodistribution Bone", "setting": "[3]; 1 h", "result": "0.07 ± 0.04"},
      {"measurement": "biodistribution Gall Bladder", "setting": "[3]; 1 h", "result": "0.47 ± 0.14"},
      {"measurement": "biodistribution Heart", "setting": "[3]; 1 h", "result": "0.06 ± 0.02"},
      {"measurement": "biodistribution Kidney", "setting": "[3]; 1 h", "result": "1.39 ± 0.55"},
      {"measurement": "biodistribution Large Intestine", "setting": "[3]; 1 h", "result": "0.02 ± 0.01"},
      {"measurement": "biodistribution Liver", "setting": "[3]; 1 h", "result": "0.24 ± 0.07"},
      {"measurement": "biodistribution Lung", "setting": "[3]; 1 h", "result": "0.14 ± 0.04"},
      {"measurement": "biodistribution Muscle", "setting": "[3]; 1 h", "result": "0.02 ± 0.01"},
      {"measurement": "biodistribution Small Intestine", "setting": "[3]; 1 h", "result": "0.35 ± 0.17"},
      {"measurement": "biodistribution Spleen", "setting": "[3]; 1 h", "result": "0.06 ± 0.02"},
      {"measurement": "biodistribution Stomach", "setting": "[3]; 1 h", "result": "1.10 ± 0.51"},
      {"measurement": "biodistribution Tail", "setting": "[3]; 1 h", "result": "0.26 ± 0.05"},
      {"measurement": "biodistribution Bladder", "setting": "[3]; 4 h", "result": "1.22 ± 0.77"},
      {"measurement": "biodistribution Blood", "setting": "[3]; 4 h", "result": "0.03 ± 0.01"},
      {"measurement": "biodistribution Bone", "setting": "[3]; 4 h", "result": "0.04 ± 0.02"},
      {"measurement": "biodistribution Gall Bladder", "setting": "[3]; 4 h", "result": "0.26 ± 0.15"},
      {"measurement": "biodistribution Heart", "setting": "[3]; 4 h", "result": "0.03 ± 0.01"},
      {"measurement": "biodistribution Kidney", "setting": "[3]; 4 h", "result": "1.10 ± 0.44"},
      {"measurement": "biodistribution Large Intestine", "setting": "[3]; 4 h", "result": "0.62 ± 0.55"},
      {"measurement": "biodistribution Liver", "setting": "[3]; 4 h", "result": "0.12 ± 0.03"},
      {"measurement": "biodistribution Lung", "setting": "[3]; 4 h", "result": "0.04 ± 0.02"},
      {"measurement": "biodistribution Muscle", "setting": "[3]; 4 h", "result": "0.01 ± 0.01"},
      {"measurement": "biodistribution Small Intestine", "setting": "[3]; 4 h", "result": "0.04 ± 0.02"},
      {"measurement": "biodistribution Spleen", "setting": "[3]; 4 h", "result": "0.03 ± 0.01"},
      {"measurement": "biodistribution Stomach", "setting": "[3]; 4 h", "result": "0.06 ± 0.02"},
      {"measurement": "biodistribution Tail", "setting": "[3]; 4 h", "result": "0.14 ± 0.08"},
      {"measurement": "biodistribution Bladder", "setting": "[3]; 12 h", "result": "0.69 ± 0.31"},
      {"measurement": "biodistribution Blood", "setting": "[3]; 12 h", "result": "0.01 ± 0.00"},
      {"measurement": "biodistribution Bone", "setting": "[3]; 12 h", "result": "0.03 ± 0.01"},
      {"measurement": "biodistribution Gall Bladder", "setting": "[3]; 12 h", "result": "0.16 ± 0.14"},
      {"measurement": "biodistribution Heart", "setting": "[3]; 12 h", "result": "0.02 ± 0.00"},
      {"measurement": "biodistribution Kidney", "setting": "[3]; 12 h", "result": "0.36 ± 0.13"},
      {"measurement": "biodistribution Large Intestine", "setting": "[3]; 12 h", "result": "0.07 ± 0.05"},
      {"measurement": "biodistribution Liver", "setting": "[3]; 12 h", "result": "0.06 ± 0.02"},
      {"measurement": "biodistribution Lung", "setting": "[3]; 12 h", "result": "0.02 ± 0.01"},
      {"measurement": "biodistribution Muscle", "setting": "[3]; 12 h", "result": "0.01 ± 0.00"},
      {"measurement": "biodistribution Small Intestine", "setting": "[3]; 12 h", "result": "0.01 ± 0.01"},
      {"measurement": "biodistribution Spleen", "setting": "[3]; 12 h", "result": "0.02 ± 0.01"},
      {"measurement": "biodistribution Stomach", "setting": "[3]; 12 h", "result": "0.01 ± 0.00"},
      {"measurement": "biodistribution Tail", "setting": "[3]; 12 h", "result": "0.13 ± 0.05"},
      {"measurement": "biodistribution Bladder", "setting": "[3]; 24 h", "result": "0.56 ± 0.41"},
      {"measurement": "biodistribution Blood", "setting": "[3]; 24 h", "result": "0.02 ± 0.02"},
      {"measurement": "biodistribution Bone", "setting": "[3]; 24 h", "result": "0.06 ± 0.01"},
      {"measurement": "biodistribution Gall Bladder", "setting": "[3]; 24 h", "result": "0.23 ± 0.21"},
      {"measurement": "biodistribution Heart", "setting": "[3]; 24 h", "result": "0.02 ± 0.01"},
      {"measurement": "biodistribution Kidney", "setting": "[3]; 24 h", "result": "1.12 ± 0.33"},
      {"measurement": "biodistribution Large Intestine", "setting": "[3]; 24 h", "result": "0.02 ± 0.01"},
      {"measurement": "biodistribution Liver", "setting": "[3]; 24 h", "result": "0.11 ± 0.02"},
      {"measurement": "biodistribution Lung", "setting": "[3]; 24 h", "result": "0.04 ± 0.01"},
      {"measurement": "biodistribution Muscle", "setting": "[3]; 24 h", "result": "0.01 ± 0.00"},
      {"measurement": "biodistribution Small Intestine", "setting": "[3]; 24 h", "result": "0.02 ± 0.01"},
      {"measurement": "biodistribution Spleen", "setting": "[3]; 24 h", "result": "0.02 ± 0.01"},
      {"measurement": "biodistribution Stomach", "setting": "[3]; 24 h", "result": "0.01 ± 0.01"},
      {"measurement": "biodistribution Tail", "setting": "[3]; 24 h", "result": "0.08 ± 0.02"},
      {"measurement": "clearance route", "setting": "[3]; healthy mice", "result": "clears exclusively through the kidneys"}
    ]}
  ]
}
